{
  "source": "paper PMC6269118",
  "about": "“Populene D Analogues: Design, Concise Synthesis and Antiproliferative Activity” (Molecules, 2012)",
  "origin": "cited, not measured here",
  "design_in_all_cases": "method as in PMID 18553924",
  "conditions_in_all_cases": "cited from earlier work",
  "key": {"[1]": {"system": "breast cancer (MCF-7)"}, "[2]": {"system": "oral cancer (KB)"}, "[3]": {"system": "cervical cancer (HeLa)"}, "[4]": {"system": "colon cancer (HT-29)"}, "[5]": {"system": "B. subtilis"}},
  "data": [
    {"smiles": "Cc1cc2c(c(O)c1O)[C@H](C)CC1=C2[C@@H](C)COC1(C)C", "note": "[Populene D]", "values": [
      {"measurement": "IC50", "setting": "[1]", "value": 0.95, "unit": "µg/mL"},
      {"measurement": "IC50", "setting": "[2]", "value": 3.10, "unit": "µg/mL"},
      {"measurement": "IC50", "setting": "[3]", "value": 1.85, "unit": "µg/mL"},
      {"measurement": "IC50", "setting": "[4]", "value": 2.37, "unit": "µg/mL"},
      {"measurement": "MIC", "setting": "[5]", "value": 4.69, "unit": "µg/mL"}
    ]}
  ]
}
